Non-standard residues stand in square brackets, D forms with d. Residues, ends and D or L forms follow the SMILES beside them. No end group written: not given here. *: point of attachment. Butyryl = CCCC(=O)*
Key:
[1] = system: tobacco leaves; assay: Effect of peptide infiltration on tobacco leaves (phytotoxicity); format: in vivo; conditions: 100 μL infiltrated into mesophyll, lesion diameter 48 h after infiltration, at least three leaves; ± confidence interval (α = 0.05)
Experimental: Peptide conjugates were also assayed for their toxicity in tobacco leaves (Fig. 3, Table SC). After 48 h of infiltration, melittin caused a necrotic area of 0.70 and 2.17 cm in diameter at 50 and 250 μM, respectively. The monomers were not phytotoxic at those concentrations; all of them led to lesions of ≤1.2 cm at 250 μM. All peptide conjugates were also less phytotoxic than melittin, causing necrotic lesions between 0.26 and 1.67 cm in diameter at 250 μM. In particular, 15 of the 30 conjugates led to a necrotic area of <1 cm at this concentration. In general, sequences incorporating BP13 were among the most phytotoxic.
Peptide conjugates were evaluated for their effect on infiltration on tobacco leaves as described previously ([41]). Peptide solutions of 50, 150, and 250 μM were infiltrated (100 μL) into the mesophylls of fully expanded tobacco leaves. Infiltrations were carried out in a single leaf, and for each peptide and dose, at least three leaves randomly distributed in different plants were inoculated. Control infiltrations with water (negative control) or melittin (positive control) at the same molar concentration were performed. The appearance of symptoms on the leaves was followed for 48 h after infiltration and measured as lesion diameter.

[2] = system: horse erythrocytes; conditions: TRIS buffer pH 7.2, 1 h, 37°C, absorbance 540 nm, relative to melittin 100 μM, ± confidence interval (α = 0.05)
Experimental: The toxicity of peptide conjugates to eukaryotic cells was determined as the ability to lyse erythrocytes (Table SB).
The hemolytic activity of the compounds was evaluated by determining hemoglobin release from erythrocyte suspensions of horse blood (5% vol/vol) (Oxoid) as previously described ([45]). Blood was centrifuged at 6000g for 5 min, washed three times with TRIS buffer (10 mM TRIS, 150 mM NaCl, pH 7.2) and diluted 10 times. Compounds were solubilized in TRIS buffer at 750, 500, 300, and 100 μM and mixed with horse erythrocytes (1:1 vol/vol). The mixture was incubated with continuous shaking for 1 h at 37°C. Then, the tubes were centrifuged at 3500g for 10 min, 80-μL aliquots of the supernatant were transferred to 100-well microplates (Bioscreen) and diluted with 80 μL water, and the absorbance measured at 540 nm (Bioscreen). […] The percentage of hemolysis (H) was calculated using the equation H = 100 × ([Op − Ob]/[Om − Ob]), where Op is the density for a given compound concentration, Ob is that for the buffer, and Om is that for the melittin positive control.

[3] = system: Xanthomonas axonopodis pv. vesicatoria 2133-2; conditions: TSB, 25°C, 48 h, OD 600 nm (Bioscreen C), three replicates, experiment repeated twice; MIC given as range
Text: The corresponding monomers (flg15, BP13, Pep13, PIP1, BP16, BP100, BP143, BP387, BP475, and KSL-W) were included for comparison.
(§1) The following plant-pathogenic bacterial strains were used: Erwinia amylovora PMV6076 (Institut National de la Recherche Agronomique, Angers, France), Pseudomonas syringae pv. syringae EPS94 (Institut de Tecnologia Agroalimentària, University of Girona, Spain), Xanthomonas axonopodis pv. vesicatoria 2133-2, X. axonopodis pv. vesicatoria Xav206 (Xav) (D. F. Ritchie, Department of Plant Pathology, North Carolina State University), Pseudomonas syringae pv. actinidiae Psa3700.1.1, Xanthomonas fragariae Xf349-9A (Instituto Valenciano de Investigaciones Agrarias, Valencia, Spain), and Xanthomonas arboricola pv. pruni CFBP5563 (Collection Française de Bactéries Associées aux Plantes, Angers, France). All bacteria except for X. fragariae were stored in Luria Bertani (LB) broth supplemented with glycerol (20%) and maintained at −80°C. For X. fragariae, medium B ([80]) was used instead of LB. E. amylovora, X. arboricola pv. pruni, P. syringae pv. syringae, and P. syringae pv. actinidiae were scraped from the agar medium after growing for 24 h at 25°C, and X. axonopodis pv. vesicatoria and X. fragariae, after growing for 48 h at 25°C. The cell material was suspended in sterile water to obtain a suspension of 10^8 CFU mL^−1.
(§2) Lyophilized peptides were solubilized in sterile Milli-Q water to a final concentration of 1 mM and filter-sterilized through a 0.22-μm pore filter. […] Then, 20 μL of each dilution were mixed in a microtiter plate well with 20 μL of the corresponding suspension of the bacterial indicator, 160 μL of Trypticase soy broth (TSB) (bioMérieux, France) to a total volume of 200 μL. Three replicates for each combination of strain, compound, and concentration were used. Microbial growth was determined by optical density measurement at 600 nm (Bioscreen C; Labsystem, Helsinki, Finland). Microplates were incubated at 25°C with 20 s of shaking before hourly absorbance measurement for 48 h. The experiment was repeated twice. The MIC was taken as the lowest compound concentration with no growth at the end of the experiment.

[4] = system: Xanthomonas arboricola pv. pruni CFBP5563; assay: In vitro growth inhibition (MIC); format: cell-based; conditions: TSB, 25°C, 48 h, OD 600 nm (Bioscreen C), three replicates, experiment repeated twice; MIC given as range
Experimental: (§3) Peptide conjugates were tested for in vitro growth inhibition of the plant-pathogenic bacteria E. amylovora PMV6076, Xanthomonas arboricola pv. pruni CFBP5563, X. fragariae Xf349-9A, X. axonopodis pv. vesicatoria 2133-2, P. syringae pv. actinidiae Psa3700.1.1, and P. syringae pv. syringae EPS94 (Fig. 1, Table SA). The corresponding monomers (flg15, BP13, Pep13, PIP1, BP16, BP100, BP143, BP387, BP475, and KSL-W) were included for comparison.
as §1, §2

[5] = system: Xanthomonas fragariae Xf349-9A; assay: In vitro growth inhibition (MIC); format: cell-based; conditions: TSB, 25°C, 48 h, OD 600 nm (Bioscreen C), three replicates, experiment repeated twice; MIC given as range
Experimental: as §3, §1, §2

[6] = system: Pseudomonas syringae pv. syringae EPS94; assay: In vitro growth inhibition (MIC); format: cell-based; conditions: TSB, 25°C, 48 h, OD 600 nm (Bioscreen C), three replicates, experiment repeated twice; MIC given as range
Experimental: as §3, §1, §2

[7] = system: Erwinia amylovora PMV6076; assay: In vitro growth inhibition (MIC); format: cell-based; conditions: TSB, 25°C, 48 h, OD 600 nm (Bioscreen C), three replicates, experiment repeated twice; MIC = lowest concentration with no growth, given as range
Experimental: as §3, §1, §2

[8] = system: Pseudomonas syringae pv. actinidiae Psa3700.1.1; assay: In vitro growth inhibition (MIC); format: cell-based; conditions: TSB, 25°C, 48 h, OD 600 nm (Bioscreen C), three replicates, experiment repeated twice; MIC given as range
Experimental: as §3, §1, §2

Compound | Size of the lesions in infiltrated tobacco leaves at 50 μM [1] | Size of the lesions in infiltrated tobacco leaves at 150 μM [1] | Size of the lesions in infiltrated tobacco leaves at 250 μM [1] | Percent hemolysis at 50 μM [2] | Percent hemolysis at 150 μM [2] | Percent hemolysis at 250 μM [2] | Percent hemolysis at 375 μM [2] | MIC, Xav [3] | MIC, Xap [4] | MIC, Xf [5] | MIC, Pss [6] | MIC, Ea [7] | MIC, Psa [8]
CC[C@H](C)[C@H](NC(=O)[C@H](CCCCN)NC(=O)[C@H](CCCCN)NC(=O)[C@H](Cc1ccccc1)NC(=O)[C@H](CC(C)C)NC(=O)[C@H](CCCCN)NC(=O)[C@@H](N)CCCCN)C(=O)N[C@@H](CC(C)C)C(=O)N[C@@H](CCCCN)C(=O)N[C@@H](CCCCN)C(=O)N[C@@H](CC(C)C)C(N)=O [BP16, reference compound] | 0.08 ± 0.11 cm | 0.16 ± 0.16 cm | 0.26 ± 0.08 cm | 2 ± 1% | 1 ± 0.6% | 1 ± 0.4% | 3 ± 3% | – | – | – | – | – | –
CC[C@H](C)[C@H](NC(=O)[C@H](CCCCN)NC(=O)[C@H](CCCCN)NC(=O)[C@H](Cc1ccccc1)NC(=O)[C@H](CC(C)C)NC(=O)[C@H](CCCCN)NC(=O)[C@@H](N)CCCCN)C(=O)N[C@@H](CC(C)C)C(=O)N[C@@H](CCCCN)C(=O)N[C@@H](Cc1ccc(O)cc1)C(=O)N[C@@H](CC(C)C)C(N)=O [BP100, reference compound] | 0.40 ± 0.03 cm | – | 1.20 ± 0.16 cm | 4 ± 0.5% | 7 ± 2% | 6 ± 0.3% | 11 ± 0.9% | – | – | – | – | – | –
CC[C@H](C)[C@H](NC(=O)[C@H](CCCCN)NC(=O)[C@H](CCCCN)NC(=O)[C@@H](Cc1ccccc1)NC(=O)[C@H](CC(C)C)NC(=O)[C@H](CCCCN)NC(=O)[C@@H](N)CCCCN)C(=O)N[C@@H](CC(C)C)C(=O)N[C@@H](CCCCN)C(=O)N[C@@H](Cc1ccc(O)cc1)C(=O)N[C@@H](CC(C)C)C(N)=O [BP143, reference compound] | 0.10 ± 0.12 cm | 0.37 ± 0.15 cm | 0.65 ± 0.11 cm | 3 ± 0.6% | 4 ± 0.6% | 6 ± 0.3% | 7 ± 0.3% | – | – | – | – | – | –
CCCC(=O)NCCCC[C@H](NC(=O)[C@@H](NC(=O)[C@H](CCCCN)NC(=O)[C@H](CCCCN)NC(=O)[C@H](Cc1ccccc1)NC(=O)[C@H](CC(C)C)NC(=O)[C@H](CCCCN)NC(=O)[C@H](CCCCN)NC(C)=O)[C@@H](C)CC)C(=O)N[C@@H](CCCCN)C(=O)N[C@@H](Cc1ccc(O)cc1)C(=O)N[C@@H](CC(C)C)C(N)=O [BP387, reference compound] (Ac-KKLFKKIK(Butyryl)KYL-NH2) | 0.32 ± 0.07 cm | 0.84 ± 0.10 cm | 0.92 ± 0.01 cm | 4 ± 0.9% | 11 ± 5% | 14 ± 0.5% | 18 ± 1% | 1.6 to 3.1 µM | 3.1 to 6.2 µM | 1.6 to 3.1 µM | 3.1 to 6.2 µM | 3.1 to 6.2 µM | 3.1 to 6.2 µM
CCCC(=O)NCCCC[C@H](NC(=O)[C@H](CCCCN)NC(=O)[C@H](CC(C)C)NC(=O)[C@@H](NC(=O)[C@H](CCCCN)NC(=O)[C@H](CCCCN)NC(=O)[C@@H](Cc1ccccc1)NC(=O)[C@H](CC(C)C)NC(=O)[C@H](CCCCN)NC(=O)[C@H](CCCCN)NC(C)=O)[C@@H](C)CC)C(=O)N[C@@H](CC(C)C)C(N)=O [BP475, reference compound] (Ac-KKL[dF]KKILKK(Butyryl)L-NH2) | 0.50 ± 0.10 cm | 0.70 ± 0.20 cm | 1.00 ± 0.10 cm | 0 ± 0% | 0 ± 0% | 0 ± 0% | 0 ± 0% | 1.6 to 3.1 µM | 0.8 to 1.6 µM | 1.6 to 3.1 µM | 3.1 to 6.2 µM | 3.1 to 6.2 µM | 1.6 to 3.1 µM
FKLFKKILKVL-KKLFKKILKKL-NH2 [BP13-BP16, peptide conjugate, BP13 at N-terminus, BP16 at C-terminus] | 0.52 ± 0.08 cm | 1.08 ± 0.21 cm | 1.40 ± 0.71 cm | 86 ± 13.2% | 86 ± 1.6% | 87 ± 1.2% | 93 ± 2.3% | 12.5 to 25 µM | 6.2 to 12.5 µM | 6.2 to 12.5 µM | > 50 µM | > 50 µM | > 50 µM
FKLFKKILKVL-KKLFKKILKYL-NH2 [BP13-BP100, peptide conjugate, BP13 at N-terminus, BP100 at C-terminus] | 0.60 ± 0.30 cm | 1.20 ± 0.17 cm | 1.30 ± 0.17 cm | 100 ± 8.3% | 100 ± 5.9% | 99 ± 7.1% | 100 ± 4.8% | 12.5 to 25 µM | 12.5 to 25 µM | 6.2 to 12.5 µM | > 50 µM | > 50 µM | 25 to 50 µM
KKVVFWVKFK-NH2 [KSL-W, reference compound] | 0 ± 0 cm | 0.37 ± 0.97 cm | 0.62 ± 0.45 cm | 4 ± 1% | 5 ± 0.2% | 6 ± 1% | 20 ± 2% | – | – | – | – | – | –
melittin [reference compound] | 0.70 cm | – | 2.17 cm | – | – | – | – | – | – | – | – | – | –

Source: PMC9238401, “Peptide Conjugates Derived from flg15, Pep13, and PIP1 That Are Active against Plant-Pathogenic Bacteria and Trigger Plant Defense Responses” (Applied and Environmental Microbiology, 2022)
